What follows are compounds tested against Kallikrein-1 (Homo sapiens, UniProt P06870) (assay: Inhibition Assay).
Description: Prior to the assay, human TK1 (R&D Systems) was activated by incubation with human trypsin (Calbiochem) in a 1:10,000 ratio for 15 min at 37° C. For assaying TK1 inhibitory activity, activated TK1 (31.25 nM or 1 U/mL) was incubated at 24° C. with 0.1 mM fluorogenic substrate H-Pro-Phe-Arg-AMC (11295 from Bachem) and various concentrations of the test compound in assay buffer. Measurements were performed in a kinetic interval every 2nd minute for 16 min using a Spectramax M5 (Molecular Devices) with the following settings of the wavelength excitation of 350 nm and wavelength emission of 450 nm.

Chain of Kallikrein-1 (P06870 whole entry): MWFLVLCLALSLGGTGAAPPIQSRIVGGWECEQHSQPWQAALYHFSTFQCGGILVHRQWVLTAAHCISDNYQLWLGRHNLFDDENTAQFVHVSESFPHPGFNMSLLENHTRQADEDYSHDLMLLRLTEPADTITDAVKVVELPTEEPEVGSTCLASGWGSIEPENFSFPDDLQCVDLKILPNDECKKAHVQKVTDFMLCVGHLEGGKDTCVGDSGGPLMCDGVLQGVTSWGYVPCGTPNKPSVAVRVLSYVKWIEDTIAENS

IC50, > 10 µM:
Cc1nc(N2CC3(CC3)C2)ccc1Cn1cc(C(=O)N[C@@H]2CCc3c(C)n[nH]c32)cn1 [US10695334, Example 11]
Cc1nc(N2CC3C(C2)C3(F)F)ccc1Cn1cc(C(=O)N[C@@H]2CCc3c(C)n[nH]c32)c(C)n1 (stereo partly drawn) [US10695334, Example 18]
Cc1nc(N2CC3C(C2)C3(F)F)ncc1Cn1cc(C(=O)N[C@@H]2CCc3c2n[nH]c3C)cn1 (stereo partly drawn) [US10695334, Example 84]
